Source: the supplement of paper PMC10307832

Legend:
Assay in all cases: relative viability (nuclei count vs DMSO), 5 days (fraction); higher = more cells survive
[1] = compound: C1CNCCC1C2=CC(=NN2)C3=CC=NC=C3 + Cc1cc(Nc2cc(N3CCN(C)CC3)nc(Sc3ccc(NC(=O)C4CC4)cc3)n2)n[nH]1 [Tozasertib] (partner 0.1 µM)
Procedure, shortened: (§1)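 Nuclei were stained with Hoechst during a one-step fixation (final 0.05% Triton X-100, 1% formaldehyde, 1 ug/ml Hoechst) carried out 5 days after dosing, then counted on 4× images. The cells, lung cancer lines in 1536-well plates, had been dosed by pin tool the day after seeding with one drug alone or a fixed anchor-drug dose plus five library-drug doses (not always all listed) in √10 steps. Relative viability is the nuclei count in treated wells divided by that in vehicle wells, and each value is the median of duplicate plates.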

Tanzisertib + Bortezomib = compound: O[C@H]1CC[C@H](Nc2ncc3nc(Nc4c(F)cc(F)cc4F)n([C@H]4CCOC4)c3n2)CC1 [Tanzisertib] + CC(C)C[C@H](NC(=O)[C@H](Cc1ccccc1)NC(=O)c1cnccn1)B(O)O [Bortezomib] (partner 0.002 µM)
Procedure, shortened: as §1

Tanzisertib + Pictilisib = compound: O[C@H]1CC[C@H](Nc2ncc3nc(Nc4c(F)cc(F)cc4F)n([C@H]4CCOC4)c3n2)CC1 [Tanzisertib] + CS(=O)(=O)N1CCN(Cc2cc3nc(-c4cccc5[nH]ncc45)nc(N4CCOCC4)c3s2)CC1 [Pictilisib] (partner 1 µM)
Procedure, shortened: as §1

Tanzisertib + Olaparib = compound: O[C@H]1CC[C@H](Nc2ncc3nc(Nc4c(F)cc(F)cc4F)n([C@H]4CCOC4)c3n2)CC1 [Tanzisertib] + O=C(c1cc(Cc2n[nH]c(=O)c3ccccc23)ccc1F)N1CCN(C(=O)C2CC2)CC1 [Olaparib] (partner 8 µM)
Procedure, shortened: as §1

| Cell Line | relative viability ([1]; first compound 0.08 µM) | relative viability ([1]; first compound 0.8 µM) | relative viability ([1]; first compound 2.53 µM) | relative viability ([1]; first compound 8 µM) | relative viability (Tanzisertib + Bortezomib; first compound 0.08 µM) | relative viability (Tanzisertib + Bortezomib; first compound 0.253 µM) | relative viability (Tanzisertib + Bortezomib; first compound 0.8 µM) | relative viability (Tanzisertib + Bortezomib; first compound 2.53 µM) | relative viability (Tanzisertib + Bortezomib; first compound 8 µM) | relative viability (Tanzisertib + Pictilisib; first compound 0.08 µM) | relative viability (Tanzisertib + Pictilisib; first compound 0.253 µM) | relative viability (Tanzisertib + Pictilisib; first compound 0.8 µM) | relative viability (Tanzisertib + Pictilisib; first compound 2.53 µM) | relative viability (Tanzisertib + Pictilisib; first compound 8 µM) | relative viability (Tanzisertib + Olaparib; first compound 0.08 µM) | relative viability (Tanzisertib + Olaparib; first compound 0.253 µM) | relative viability (Tanzisertib + Olaparib; first compound 0.8 µM) | relative viability (Tanzisertib + Olaparib; first compound 2.53 µM) | relative viability (Tanzisertib + Olaparib; first compound 8 µM) |
| --- | --- | --- | --- | --- | --- | --- | --- | --- | --- | --- | --- | --- | --- | --- | --- | --- | --- | --- | --- |
| ChaGo-K-1 | 0.237 | 0.223 | 0.232 | 0.216 | 0.915 | 1.21 | 1.07 | 0.934 | 0.916 | 0.657 | 0.819 | 0.845 | 0.627 | 0.482 | 0.511 | 0.422 | 0.453 | 0.45 | 0.438 |
| COR-L23 | 0.222 | 0.201 | 0.229 | 0.172 | 1.13 | 0.982 | 0.975 | 1.11 | 1.04 | 0.922 | 0.736 | 0.781 | 0.97 | 0.869 | 0.339 | 0.353 | 0.347 | 0.417 | 0.353 |
| EMC-BAC-2 | 0.28 | 0.311 | 0.319 | 0.263 | 1.19 | 1.14 | 1.13 | 1.05 | 1.06 | 0.606 | 0.534 | 0.57 | 0.528 | 0.419 | 0.484 | 0.477 | 0.455 | 0.488 | 0.533 |
| LCLC-103H | 0.469 | 0.534 | 0.459 | 0.443 | 1.15 | 1.06 | 1.04 | 1.18 | 1.16 | 0.698 | 0.642 | 0.648 | 0.616 | 0.608 | 0.76 | 0.813 | 0.816 | 0.8 | 0.81 |
| SW 1573 | – | 0.202 | 0.174 | 0.148 | 1.09 | 1.09 | 0.946 | 1.15 | 0.712 | 0.63 | 0.373 | 0.481 | 0.584 | 0.505 | 0.453 | 0.406 | 0.475 | 0.455 | 0.443 |
| NCI-H2405 | 0.749 | 0.751 | 0.692 | 0.525 | 1.03 | 1.02 | 1.07 | 0.975 | 0.794 | 0.438 | 0.422 | 0.49 | 0.421 | 0.323 | 0.924 | 0.902 | 0.869 | 1.03 | 0.869 |
| NCI-H2087 | 0.267 | 0.231 | 0.226 | 0.202 | 0.985 | 0.931 | 0.835 | 0.9 | 0.857 | 1.17 | 0.838 | 0.886 | 0.753 | 0.743 | 0.552 | 0.576 | 0.501 | 0.52 | 0.588 |
| NCI-H460 | 0.474 | 0.381 | 0.617 | 0.449 | 1.21 | 1.2 | 1.12 | 1.07 | 0.965 | 0.495 | 0.368 | 0.362 | 0.317 | 0.0876 | 0.487 | 0.445 | 0.417 | 0.442 | 0.503 |
| LOU-NH91 | 0.673 | 0.648 | 0.696 | 0.58 | 0.49 | 0.516 | 0.493 | 0.502 | 0.543 | 0.516 | 0.544 | 0.573 | 0.51 | 0.443 | 0.948 | 0.896 | 0.989 | 0.89 | 0.727 |
| NCI-H1651 | 0.598 | 0.685 | 0.767 | 0.735 | 0.897 | 0.917 | 0.925 | 0.875 | 0.853 | 0.562 | 0.579 | 0.581 | 0.6 | 0.583 | 0.206 | 0.182 | 0.196 | 0.2 | 0.175 |
| NCI-H441 | 0.532 | 0.613 | 0.727 | 0.73 | 0.53 | 0.409 | 0.407 | 0.815 | 0.471 | 0.494 | 0.529 | 0.525 | 0.476 | 0.463 | 0.642 | 0.611 | 0.545 | 0.496 | 0.535 |
